Measured values as given in PMC12679848, “Sulphonamide derivatives with a triazine core as novel inducers of apoptosis and pyroptosis in glioblastoma multiforme cells” (Journal of Enzyme Inhibition and Medicinal Chemistry, 2025).

What was measured:
[1] = Annexin V-FITC/PI apoptosis analysis, U-87 MG; format: cell-based, human; settings: human, U-87 MG cells, read-out: Viable cells
Method: (§1) The level of apoptosis induction of the newly synthesised compounds MM118 and MM119 was determined using double staining with Annexin V-FITC and propidium iodide (AV/PI). This method enables the differentiation of four cell populations based on their state: viable cells, necrotic cells, cells in early apoptosis, and late apoptosis. The compounds were analysed on A172 and U-87 MG human glioblastoma multiforme cell lines using concentrations of 1 μM and 1.5 μM over a 24-h exposure period.
(§2) The impact of apoptosis induction by the tested compounds at concentrations of 1 μM and 1.5 μM, as well as by temozolomide at 1.5 μM, was evaluated through annexin V-FITC and propidium iodide (PI) staining with the Apoptosis Detection Kit II (BD Biosciences, San Diego, CA, USA). The glioblastoma cell lines A172 and U-87 MG were then deprived of medium and washed several times with cold phosphate-buffered saline (PBS) solution. The cell suspension was then prepared in the binding buffer provided in the kit at a concentration of 1 × 10^6 cells/mL. From each sample, 100 μL of the cell suspension was transferred to tubes and subsequently treated with 5 μL of Annexin V-FITC and 5 μL of propidium iodide (PI). The tubes were then incubated for 15 min at room temperature in the dark. Following the incubation period, 400 μL of binding buffer was added to each sample, after which the samples were immediately analysed using a BD FACSCanto II flow cytometer (Becton Dickinson Biosciences, San Jose, CA, USA), with 10,000 events recorded per sample. The results were then analysed using FACSDiva Software Version 6.1.3 (BD Biosciences Systems, San Jose, CA, USA).

U-87 MG [2] = test: Annexin V-FITC/PI apoptosis analysis, U-87 MG; format: cell-based, human; settings: 1.5 μM, 24 h
Method: as §1, §2

A172 = test: Mitochondrial membrane potential (JC-1), A172; format: cell-based, human; settings: A172, 1.5 μM, 24 h
Method: (§3) The impact of the novel compounds on mitochondrial membrane potential (ΔΨm) was examined. […] In this study, the fluorochrome JC-1 was employed, which, in cells with normally functioning mitochondria, aggregates and accumulates in the hyperpolarized mitochondrial membrane, emitting a red colour. Conversely, when the membrane is damaged, JC-1 breaks down into monomers, emitting green fluorescence. […] For the U-87 MG cell line, these parameters were equal to 54.88 ± 8.36% and 56.13 ± 13.97% of the cell population.
(§4) JC-1 (1,1′,3,3′-Tetraethyl-5,5′,6,6′-tetrachloroimidacarbocyanine iodide) (BD Biosciences, San Diego, CA, USA), a lipophilic fluorochrome, was used to evaluate changes in mitochondrial membrane potential. After treatment, cancer cells at a concentration of 1 × 10^6 cells/mL were collected and rinsed twice with PBS. Then, 500 μL JC-1 working solution was added to each sample according to the manufacturer’s protocol. The samples were then incubated for 15 min at 37 °C in a CO2 incubator. After incubation, samples were washed twice with an assay buffer, and 500 μL of each sample was transferred to a BD FACSCanto II flow cytometer (Becton Dickinson Biosciences, San Jose, CA, USA) for analysis, with 10,000 events recorded per sample. Data were analysed using FACSDiva software version 6.1.3 (BD Biosciences Systems, San Jose, CA, USA).

U-87 MG [3] = test: Mitochondrial membrane potential (JC-1), U-87 MG; format: cell-based, human; settings: 1.5 μM, 24 h
Method: as §3, §4

caspase 3/7 = test: Caspase 3/7 activation (FAM FLICA), U-87 MG; format: cell-based, human; settings: 1.5 μM, 24 h
Method: (§5) The activity of caspase 1, caspase 3/7, caspase 8, and caspase 9 was evaluated through the utilisation of FAM FLICA Caspase Assays (ImmunoChemistry Technologies, Bloomington, MN, USA), in accordance with the established protocols. Following treatment with the compounds, the cells were collected at a concentration of 1 × 10^6 cells/mL, washed twice with cold PBS, and resuspended in 290 μL of PBS. The subsequent step involved the addition of 10 μL of 30X FLICA solution, followed by incubation at 37 °C in the absence of light for one hour. Then, 2 ml of Apoptosis Wash Buffer was added, and the samples were washed twice. A 300 μL aliquot of each sample was transferred to a BD FACSCanto II flow cytometer (Becton Dickinson Biosciences, San Jose, CA, USA), where 10,000 events per sample were recorded. The resulting data was then analysed using FACSDiva software, version 6.1.3 (BD Biosciences Systems, San Jose, CA, USA).

caspase 1 [4] = test: Caspase 1 activation (FAM FLICA), A172; format: cell-based, human; settings: 24 h
Method: (§6) Given the activation of oxidative stress and the occurrence of apoptotic cell death, we decided to verify whether other cell death pathways are triggered. The level of pyroptosis induction of the newly synthesised compounds MM118 and MM119 was determined by assessing the activation of caspase 1. This method facilitates the identification of cells undergoing pyroptosis by detecting the active form of caspase 1, which is a pivotal mediator in the pyroptotic pathway. The tested compounds were analysed on human A172 and U-87 MG glioblastoma multiforme cell lines using concentrations of 1 μM and 1.5 μM for a period of 24 h. […] Conversely, for compound MM119 in line A172, caspase 1 activation was 12.35 ± 2.00% at a concentration of 1 μM and 21.30 ± 1.57% at a concentration of 1.5 μM. For the U-87 MG line, the values were 12.25 ± 2.16% and 24.50 ± 2.11%, respectively.
as §5

caspase 1 [5] = test: Caspase 1 activation (FAM FLICA), U-87 MG; format: cell-based, human; settings: 24 h
Method: as §6, §5

NF-κB = test: NF-kB staining (immunofluorescence, confocal); format: cell-based; settings: 1.5 μM, 24 h of treatment
Method: Location of NF-kB was evaluated by immunofluorescence staining. Cells were cultured on sterile coverslips placed in 6-well plates and treated with compounds MM118, MM119, and TMZ at a concentration of 1.5 μM. After 24 h of treatment, cells were fixed with 4% paraformaldehyde for 15 min at room temperature, then permeabilized with 0.1% Triton X-100 in PBS for 10 min. Following permeabilization, cells were blocked with 2% BSA (bovine serum albumin; Cell Signalling Technology, Danvers, MA, USA) in PBS for 30 min to prevent non-specific binding. Subsequently, cells were incubated overnight at 4 °C with a NF-KB antibody directly conjugated with Alexa Fluor 647 (#D14E12; Cell Signalling Technology, Danvers, MA, USA). The next day, after washing with PBS, nuclei were counterstained with DAPI (4′,6-diamidino-2-phenylindole; Sigma-Aldrich, St. Louis, MO, USA) for 5 min at room temperature. Coverslips were mounted onto glass slides using an antifade mounting medium and imaged using a Stellaris 5 confocal microscope (Leica Microsystems, GmbH, Wetzlar, Germany). Images were analysed using ImageJ software (Bethesda, MD, USA).

SMILES	viability at 24 h, 1 µM [1]	viability at 24 h, 1.5 µM [1]	Early apoptotic cells (U-87 MG [2])	Late apoptotic cells (U-87 MG [2])	Necrotic cells (U-87 MG [2])	Decreased ΔΨm (cell population) (A172)	Decreased ΔΨm (cell population) (U-87 MG [3])	Active caspase 3/7 (cell population) (caspase 3/7)	Active caspase 1 (cell population) (caspase 1 [4]; A172, 1.0 μM)	Active caspase 1 (cell population) (caspase 1 [4]; A172, 1.5 μM)	Active caspase 1 (cell population) (caspase 1 [5]; 1.0 μM)	Active caspase 1 (cell population) (caspase 1 [5]; 1.5 μM)	NF-κB localisation (NF-κB)	Viable cells (U-87 MG [2])
CCC(CO)NS(=O)(=O)c1ccc(-n2nc(C)c3nc4nnnn4nc32)cc1 (stereo in doubt) [MM118, N-(R)-(1-hydroxy-but-2-yl)-4-[7-methyl-5H-pyrazolo[4,3-e]tetrazolo[1,5-b][1]^,[2]^,[4]triazin-5-yl)]benzenesulfonamide]	76.2%	48.8 ± 3.9%	10.28 ± 4.08%	38.73 ± 4.09%	2.30 ± 1.81%	70.43 ± 1.44%	54.88 ± 8.36%	60.08 ± 2.50%	12.10 ± 1.69%	20.38 ± 1.75%	17.15 ± 1.81%	26.65 ± 2.28%	NF-κB translocates to the cell nucleus	
Cn1nnc2c(C(N)=O)ncn2c1=O [TMZ, temozolomide, reference compound]		93.4%	3.40 ± 1.63%	4.73 ± 0.64%	0.25 ± 0.24%	20.25 ± 9.20%	7.05 ± 2.85%	no significant differences		no significant differences		no significant differences	NF-κB translocates to the cell nucleus	91.65 ± 1.58%
CCC(CO)NS(=O)(=O)c1ccc(-n2nc(C)c3nc4nnnn4nc32)cc1 (stereo in doubt) [MM119, N-(S)-(1-hydroxy-but-2-yl)-4-[7-methyl-5H-pyrazolo[4,3-e]tetrazolo[1,5-b][1]^,[2]^,[4]triazin-5-yl)]benzenesulfonamide]	85.4%	50.5 ± 7.23%	10.18 ± 4.45%	37.40 ± 6.20%	1.95 ± 1.42%	64.38 ± 1.90%	56.13 ± 13.97%	57.48 ± 19.68%	12.35 ± 2.00%	21.30 ± 1.57%	12.25 ± 2.16%	24.50 ± 2.11%	NF-κB translocates to the cell nucleus	
